According to patent publication US20230218589A1, “COMPOUND FOR PREVENTION OR TREATMENT OF A SKIN CANCER OR SKIN PRECANCER” (UNIQUEST PTY LTD, priority 2020, published 2023):

Key:
[1] = test system: human T cells; assay: Human T cell proliferation assay (PBMCs, anti-CD3, CellTiter-Glo); type: cell-based; conditions: 50 ng/mL cyclosporine A, anti-CD3, 5 days
Procedure: Cyclosporine A 1 mg/mL stock (CsA—Sigma) was dissolved in DMSO, Rapamycin 5 mg/mL stock (LC Labs) was dissolved in ethanol.
Under sterile conditions, a 96 well flat bottom plate with white opaque walls (Perkin Elmer) was coated with 10 μg per well of purified human anti-CD3 antibody (clone OKT-3; Biolegend) in a volume of 50 μL per well in sterile PBS. The plate was covered in parafilm and incubated overnight at 4° C. Just prior to addition of Peripheral Blood Mononuclear Cells (PBMCs), the antibody solution was removed and discarded using a multichannel pipette. Wells were washed by adding 200 μL sterile PBS to each well and incubating for 2 min. PBS wash solution was removed and discarded following incubation. The wash step was repeated once, for a total of two PBS washes.
20 mL of blood from a consenting healthy volunteer was collected into lithium heparin vacuette containers (Greiner Bio-One). Under sterile conditions, blood from each container was pooled into a single tube and mixed thoroughly with 20 mL FACS buffer (2% FBS in 1×PBS). 15 mL Ficoll-Paque (GE Healthcare) was added to two 50 mL Falcon tubes, before 20 mL of whole blood/FACS buffer mixture was carefully and slowly dispensed on top of the Ficoll layer. Tubes were centrifuged at 800 g for 20 min at room temperature with the brake off. After centrifugation, the resulting PBMC layer between the plasma and Ficoll layers was carefully removed and transferred to a new 50 mL Falcon tube. Tubes were topped up to 45 mL with FACS buffer, then centrifuged at 500 g for 15 min. Supernatant was carefully removed without disturbing cell pellet, then PBMCs from both tubes were pooled. 30 mL of pre-warmed complete RPMI media [RPMI 1640 (Gibco), 10% heat inactivated FBS (Gibco), 1× Penicillin/Streptomycin/L-Glutamine (Gibco), 100 μM 2-Mercaptoethanol (Sigma)] was added to PBMCs, before centrifugation at 500 g for 15 min at room temperature. Supernatant was removed carefully without disturbing cell pellet. PBMCs were resuspended in 1 mL complete RPMI media.
PBMCs were counted manually using a haemocytometer and cell concentration was adjusted to 1.5×10^6 cells/mL with complete RPMI media. 50 μL of cell suspension was added to appropriate wells of the 96 well flat bottom plate with white opaque walls pre-coated in human anti-CD3. The final number of cells per well was 7.5×10^4.
Cells were incubated in a humidified incubator at 37° C. with 5% CO2 for 1 hour before Compound 1 (or vehicle only) was diluted in complete RPMI medium and added to the appropriate wells at the concentration required. The final volume in all wells was 100 μL. Cells were incubated for 5 days in a humidified incubator at 37° C. with 5% CO2.
CellTiter-Glo Luminescent Cell Viability Assay (Promega) was performed to determine the level of metabolically active cells per well based on ATP quantification. CellTiter-Glo Buffer and lyophilised CellTiter-Glo Substrate were equilibrated to room temperature. CellTiter-Glo Substrate was reconstituted with 10 mL CellTiter-Glo Buffer and gently vortexed for 1 minute to create the CellTiter-Glo Reagent. The 96 well plate containing PBMCs was equilibrated to room temperature for 30 min. Once at room temperature, 100 μL of CellTiter-Glo Reagent was dispensed using a multichannel pipette into each well containing 100 μL cells and media. The plate was mixed for 2 min at room temperature on an orbital shaker to induce cell lysis. The plate was then incubated for 10 min at room temperature in the dark to stabilize the luminescence signal. Luminescence signal was recorded using a CLARIOstar Plus plate reader (BMG Labtech).
PBMCs were stimulated with human anti-CD3 antibody and T cells were allowed to proliferate at 37° C. with 5% CO2 in a humidified incubator for 5 days. Proliferation/viability was assessed via a CellTiter-Glo Luminescent Cell Viability Assay and luminescence was read using a CLARIOstar Plus plate reader. […]

[2] = test system: actinic keratoses (AKs); conditions: topical therapy, organ transplant recipients (Heppt et al. 2019); cited from earlier work

Compound	T cell proliferation compared to the vehicle control [1]	complete clearance rate of AKs [2]
cyclosporine A [reference compound]	inhibited	
O=c1[nH]cc(F)c(=O)[nH]1 [5-fluorouracil]		11%
CC(C)Cn1cnc2c(N)nc3ccccc3c21 [imiquimod]		27.5-62.1%
